Laboratory results: ChEMBL document CHEMBL1201862, “PubChem BioAssay data set” (2004)
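Each compound was tested at five concentrations against cells in 96-well plates for 48 hours. Abbreviation: GI50, concentration required for 50% inhibition of growth.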 Active and inactive are the calls of the source. No stated cut-off is given here; in the data, active = GI50 up to about 1.1 µM and inactive = higher. Where a SMILES comes first, the peptide text is derived from it. [ ]: non-standard residue; d: D form. Aoe = N[C@@H](CCCCCC(=O)[C@@H]1CO1)C(=O)O

How the values were obtained:
Assay in all cases: NCI anticancer screen, dose series, 48 h
SNB-75 = system: SNB-75
NCI-H460 = system: NCI-H460
SW-620 = system: SW-620
SF-539 = system: SF-539
ACHN = system: ACHN
NCI-H226 = system: NCI-H226
TK-10 = system: TK-10
SK-MEL-2 = system: SK-MEL-2
HT-29 = system: HT-29
DU-145 = system: DU-145
HCT-15 = system: HCT-15
M14 = system: M14
MDA-MB-435 = system: MDA-MB-435
MCF7 = system: MCF7
UO-31 = system: UO-31
MDA-N = system: MDA-N
MOLT-4 = system: MOLT-4
Hs-578T = system: Hs-578T
HOP-62 = system: HOP-62

Compound | GI50 (SNB-75) | GI50 (NCI-H460) | GI50 (SW-620) | GI50 (SF-539) | GI50 (ACHN) | GI50 (NCI-H226) | GI50 (TK-10) | GI50 (SK-MEL-2) | GI50 (HT-29) | GI50 (DU-145) | GI50 (HCT-15) | GI50 (M14) | GI50 (MDA-MB-435) | GI50 (MCF7) | GI50 (UO-31) | GI50 (MDA-N) | GI50 (MOLT-4) | GI50 (Hs-578T) | GI50 (HOP-62)
NP(=O)(OCC1=CC(=O)c2ccccc2C1=O)N(CCBr)CCBr (centres undefined) | 7.26 µM (inactive) | 1.79 µM (inactive) | 2.32 µM (inactive) | 3.99 µM (inactive) | 1.44 µM (inactive) | 6.58 µM (inactive) | 17.2 µM (inactive) | 4.26 µM (inactive) | 11.1 µM (inactive) | 5.04 µM (inactive) | 5.13 µM | 2.01 µM (inactive) | 2.14 µM (inactive) | 2.07 µM (inactive) | 11.2 µM (inactive) | 1.65 µM (inactive) | 0.634 µM (active) | 31.5 µM (inactive) | 
O=C(Cc1ccccc1)Nn1c(-c2ccccc2)nc2ccccc2c1=O | 8.83 µM (inactive) | > 100 µM (inactive) | > 100 µM (inactive) | > 100 µM (inactive) | > 100 µM (inactive) | > 100 µM (inactive) | > 100 µM (inactive) |  | > 100 µM (inactive) | > 100 µM (inactive) |  | > 100 µM (inactive) | > 100 µM (inactive) | > 100 µM (inactive) | > 100 µM (inactive) | > 100 µM (inactive) | > 100 µM (inactive) | 42.3 µM (inactive) | > 100 µM (inactive)
COc1cc(Cn2c3c(c4cc(O)ccc42)C(=O)c2ccccc2C3=O)cc(OC)c1 |  | 5.61 µM (inactive) | 16.7 µM (inactive) | 2.05 µM (inactive) | 1.61 µM (inactive) |  | 11.6 µM (inactive) | 14.7 µM (inactive) | 4.1 µM (inactive) | 10.8 µM (inactive) | 11.7 µM | 16.3 µM (inactive) | 0.743 µM (active) | 12.2 µM (inactive) | 4.32 µM (inactive) | 1.49 µM (inactive) | 16.3 µM (inactive) | 11 µM (inactive) | 2.77 µM (inactive)
COC1OC(CBr)C(OC(c2ccccc2)(c2ccccc2)c2ccccc2)C(OC(c2ccccc2)(c2ccccc2)c2ccccc2)C1OC(c1ccccc1)(c1ccccc1)c1ccccc1 (centres undefined) |  | 46.1 µM (inactive) | 64.1 µM (inactive) | 23.1 µM (inactive) | 45.9 µM (inactive) | 33.4 µM (inactive) | 28.3 µM (inactive) |  | 96.6 µM (inactive) | 76.2 µM (inactive) | > 100 µM | 51.8 µM (inactive) | > 100 µM (inactive) | 41.7 µM (inactive) | 14.3 µM (inactive) | 74.3 µM (inactive) | > 100 µM (inactive) | 34.9 µM (inactive) | 25.2 µM (inactive)
Cc1ccc([N+](=O)[O-])cc1S(=O)(=O)Nc1ccc(C2=NN(C(=O)c3ccccc3)C(c3cccs3)C2)cc1 (centres undefined) | 20.2 µM (inactive) |  | 45.5 µM (inactive) | 18.2 µM (inactive) | 25.4 µM (inactive) | 21.5 µM (inactive) | 21.4 µM (inactive) | 14.9 µM (inactive) | 26.3 µM (inactive) | 34.2 µM (inactive) | 21 µM | 24.1 µM (inactive) | 33.1 µM (inactive) | 18.1 µM (inactive) | 24 µM (inactive) | 23.8 µM (inactive) | 20.4 µM (inactive) | 27 µM (inactive) | 20.9 µM (inactive)
NC1OC(COC(=O)c2ccccc2)C(O)C(OC(=O)c2ccccc2)C1OC(=O)c1ccccc1 (centres undefined) | 18.6 µM (inactive) | 11.4 µM (inactive) | 19 µM (inactive) |  | 19.3 µM (inactive) | 20.8 µM (inactive) | 61.9 µM (inactive) | 29.9 µM (inactive) | 17.3 µM (inactive) | 40.1 µM (inactive) | 32.7 µM | 24.3 µM (inactive) | 21.7 µM (inactive) | 23.9 µM (inactive) | 33.5 µM (inactive) | 22.3 µM (inactive) | 14.7 µM (inactive) | 15.1 µM (inactive) | 22.7 µM (inactive)
c1ccc(CNCCCCNCCCNCc2ccccc2)cc1 | 19.4 µM (inactive) | 15.3 µM (inactive) | 15.8 µM (inactive) |  | 15.7 µM (inactive) | 20.2 µM (inactive) | 19.8 µM (inactive) | 31.6 µM (inactive) | 15.2 µM (inactive) | 23.6 µM (inactive) | 19 µM | 29.1 µM (inactive) | 16.4 µM (inactive) | > 100 µM (inactive) | 21.5 µM (inactive) | 12.9 µM (inactive) | 14.3 µM (inactive) | 14 µM (inactive) | 22.2 µM (inactive)
CC(NC(=O)C(C)C(=O)NCc1ccc(C(F)(F)F)cc1)C(N)=O (centres undefined) | 48.1 µM (inactive) | > 100 µM (inactive) | > 100 µM (inactive) | > 100 µM (inactive) | > 100 µM (inactive) | > 100 µM (inactive) |  | > 100 µM (inactive) | > 100 µM (inactive) | > 100 µM (inactive) | > 100 µM | > 100 µM (inactive) | > 100 µM (inactive) | > 100 µM (inactive) | > 100 µM (inactive) | > 100 µM (inactive) | > 100 µM (inactive) | > 100 µM (inactive) | 
COC(=O)c1c(-c2ccc(Cl)cc2)cc2c3ccccc3n(C)c2c1C(=O)OC |  | 49.8 µM (inactive) | > 100 µM (inactive) | > 100 µM (inactive) | > 100 µM (inactive) | > 100 µM (inactive) | > 100 µM (inactive) | > 100 µM (inactive) | 91.6 µM (inactive) | > 100 µM (inactive) | > 100 µM | > 100 µM (inactive) | > 100 µM (inactive) | 38.3 µM (inactive) | 2.47 µM (inactive) | > 100 µM (inactive) | 23.1 µM (inactive) | > 100 µM (inactive) | > 100 µM (inactive)
Cc1ccc(-n2cc([Si](C)(C)C)nn2)s1 |  | > 100 µM (inactive) | > 100 µM (inactive) | > 100 µM (inactive) | > 100 µM (inactive) | > 100 µM (inactive) | > 100 µM (inactive) | > 100 µM (inactive) | 34.8 µM (inactive) | > 100 µM (inactive) | > 100 µM | > 100 µM (inactive) | > 100 µM (inactive) | > 100 µM (inactive) | 84.3 µM (inactive) | > 100 µM (inactive) |  | > 100 µM (inactive) | 
CCNC(=O)Cc1nc2c(N)ncnc2n1C1OC(CO)C(O)C1O (centres undefined) |  | > 100 µM (inactive) | > 100 µM (inactive) | > 100 µM (inactive) | > 100 µM (inactive) | > 100 µM (inactive) | > 100 µM (inactive) | 48.6 µM (inactive) | > 100 µM (inactive) | > 100 µM (inactive) | > 100 µM | > 100 µM (inactive) | > 100 µM (inactive) | 23.3 µM (inactive) | > 100 µM (inactive) | > 100 µM (inactive) | > 100 µM (inactive) | > 100 µM (inactive) | > 100 µM (inactive)
CC(=O)Oc1ccc(C)c2c1[C@H]1CC[C@]3(C)[C@@H](OC(C)=O)CC[C@H]3[C@@H]1CC2 | 24.9 µM (inactive) | 20 µM (inactive) | 18.9 µM (inactive) | 19.6 µM (inactive) | 16.2 µM (inactive) | 21.8 µM (inactive) | 26.5 µM (inactive) |  | 17.1 µM (inactive) | 26.9 µM (inactive) | 17.8 µM | 17.5 µM (inactive) | 17.9 µM (inactive) | 23.6 µM (inactive) | 39.3 µM (inactive) | 18.5 µM (inactive) | 16 µM (inactive) | 23 µM (inactive) | 18.1 µM (inactive)
CC1(C)[C@@H]2C[C@H]1C(Cc1cccc(C[C@H]3c4cc(-c5ccccn5)ncc4[C@H]4C[C@@H]3C4(C)C)c1)c1cc(-c3ccccn3)ncc12 (some centres undefined) | 5.05 µM (inactive) | 0.689 µM (active) | 0.745 µM (active) | 1.28 µM (inactive) | 0.328 µM (active) |  | 2.44 µM (inactive) | 12.9 µM (inactive) | 0.951 µM (active) | 0.993 µM (active) | 1.09 µM | 0.485 µM (active) | 0.548 µM (active) | 0.547 µM (active) | 0.785 µM (active) | 0.729 µM (active) | 0.312 µM (active) | > 100 µM (inactive) | 1.28 µM (inactive)
c1cc(C[S+]2CCCC2)ccc1C[S+]1CCCC1 | 52.1 µM (inactive) | > 100 µM (inactive) | > 100 µM (inactive) | > 100 µM (inactive) | > 100 µM (inactive) | > 100 µM (inactive) | > 100 µM (inactive) |  | > 100 µM (inactive) | > 100 µM (inactive) | > 100 µM | > 100 µM (inactive) | > 100 µM (inactive) | > 100 µM (inactive) | > 100 µM (inactive) | > 100 µM (inactive) | > 100 µM (inactive) | > 100 µM (inactive) | > 100 µM (inactive)
O=C1N[C@@H](Cc2ccccc2)C(=O)N2CCC[C@@H]2C(=O)N[C@@H](CCCCCC(=O)[C@@H]2CO2)C(=O)N[C@H]1Cc1ccccc1 [TRAPOXIN B] (cyclo(FF[dP][Aoe])) | 0.00366 µM (active) | 0.011 µM (active) | 0.000305 µM (active) |  | 0.00124 µM (active) | 0.222 µM (active) | 0.00368 µM (active) | 0.00116 µM (active) | < 0.000212 µM (active) | 0.00136 µM (active) | 0.0432 µM | 0.000597 µM (active) | 0.000546 µM (active) | 0.000553 µM (active) | 0.00209 µM (active) | 0.000512 µM (active) | < 0.000212 µM (active) | 0.000685 µM (active) | < 0.000212 µM (active)
